From PMC3544137, “Isolation identification and biochemical characterization of a novel halo-tolerant lipase from the metagenome of the marine sponge Haliclona simulans” (Microbial Cell Factories, 2012) come the findings set out here.

Molecules are shown by their SMILES.

For this assay, the target named is T1, Lpc53E1 (uncultured bacterium, UniProt I4AY78).
T1 construct: primer-encoded N-terminus MKSRLNDI
The experiment in a line: p-nitrophenol release at […] nm, Lineweaver-Burk. Format: biochemical. To be noted: pH 7, 40 °C; unit printed as mM^-1 (presumably mM); unit of the source corrected.

T1 sequence (I4AY78 1-387 limits assumed): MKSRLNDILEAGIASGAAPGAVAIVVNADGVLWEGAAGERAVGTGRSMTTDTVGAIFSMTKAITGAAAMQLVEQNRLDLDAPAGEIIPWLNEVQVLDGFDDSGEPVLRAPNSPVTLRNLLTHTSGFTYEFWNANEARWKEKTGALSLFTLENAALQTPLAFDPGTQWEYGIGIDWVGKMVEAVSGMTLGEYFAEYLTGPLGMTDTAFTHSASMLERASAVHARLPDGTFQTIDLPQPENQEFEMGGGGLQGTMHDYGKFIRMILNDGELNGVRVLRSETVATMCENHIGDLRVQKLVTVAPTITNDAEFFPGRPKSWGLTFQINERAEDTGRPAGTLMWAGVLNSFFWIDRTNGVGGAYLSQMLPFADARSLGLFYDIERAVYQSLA

Consider `CCCCCCCCCCCCCCCC(=O)Oc1ccc([N+](=O)[O-])cc1` [pNPP, p-nitrophenyl palmitate], for which the KM stood at 1.09 mM.

Broadly, the KM is the substrate concentration at which the rate is half of its maximum.
